In patent publication US20220226337A1 (Gilead Sciences, Inc., priority 2018, published 2022):
pEC50: −log10 of the molar value.

Target: T1, α4β7 integrin interaction with MadCAM-1 (RPMI8866 cells) (Homo sapiens, UniProt P13612+P26010)
T1 construct: α4β7 integrin expressing cells; endogenous in cells; host or cells: RPMI8866 cells
T1 sequence (P13612 34-1032): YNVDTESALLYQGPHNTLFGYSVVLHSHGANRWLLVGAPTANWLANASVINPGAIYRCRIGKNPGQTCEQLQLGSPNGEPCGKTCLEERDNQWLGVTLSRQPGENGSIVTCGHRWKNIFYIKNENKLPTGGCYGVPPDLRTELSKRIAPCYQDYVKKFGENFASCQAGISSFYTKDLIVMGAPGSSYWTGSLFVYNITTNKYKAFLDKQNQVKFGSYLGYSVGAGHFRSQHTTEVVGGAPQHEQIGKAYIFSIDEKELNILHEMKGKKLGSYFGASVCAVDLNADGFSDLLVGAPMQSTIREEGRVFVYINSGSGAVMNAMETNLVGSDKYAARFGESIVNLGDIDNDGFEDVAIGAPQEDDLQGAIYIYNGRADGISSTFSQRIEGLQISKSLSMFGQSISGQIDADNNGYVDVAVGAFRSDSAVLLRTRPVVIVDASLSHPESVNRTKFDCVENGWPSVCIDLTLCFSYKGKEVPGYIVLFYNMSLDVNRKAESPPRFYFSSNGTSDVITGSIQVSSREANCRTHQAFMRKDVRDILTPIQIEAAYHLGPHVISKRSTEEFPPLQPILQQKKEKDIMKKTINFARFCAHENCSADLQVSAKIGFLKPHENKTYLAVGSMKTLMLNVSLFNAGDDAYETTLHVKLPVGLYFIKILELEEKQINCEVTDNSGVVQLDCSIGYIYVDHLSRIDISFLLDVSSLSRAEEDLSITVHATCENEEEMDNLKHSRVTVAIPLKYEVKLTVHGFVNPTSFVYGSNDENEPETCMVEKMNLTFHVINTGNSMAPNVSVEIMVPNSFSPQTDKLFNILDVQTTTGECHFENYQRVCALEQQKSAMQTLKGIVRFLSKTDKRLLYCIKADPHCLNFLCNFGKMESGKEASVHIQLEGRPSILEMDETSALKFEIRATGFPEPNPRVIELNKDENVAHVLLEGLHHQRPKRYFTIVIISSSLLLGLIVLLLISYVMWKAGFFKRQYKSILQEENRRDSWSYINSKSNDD
T1 sequence (P26010 20-798): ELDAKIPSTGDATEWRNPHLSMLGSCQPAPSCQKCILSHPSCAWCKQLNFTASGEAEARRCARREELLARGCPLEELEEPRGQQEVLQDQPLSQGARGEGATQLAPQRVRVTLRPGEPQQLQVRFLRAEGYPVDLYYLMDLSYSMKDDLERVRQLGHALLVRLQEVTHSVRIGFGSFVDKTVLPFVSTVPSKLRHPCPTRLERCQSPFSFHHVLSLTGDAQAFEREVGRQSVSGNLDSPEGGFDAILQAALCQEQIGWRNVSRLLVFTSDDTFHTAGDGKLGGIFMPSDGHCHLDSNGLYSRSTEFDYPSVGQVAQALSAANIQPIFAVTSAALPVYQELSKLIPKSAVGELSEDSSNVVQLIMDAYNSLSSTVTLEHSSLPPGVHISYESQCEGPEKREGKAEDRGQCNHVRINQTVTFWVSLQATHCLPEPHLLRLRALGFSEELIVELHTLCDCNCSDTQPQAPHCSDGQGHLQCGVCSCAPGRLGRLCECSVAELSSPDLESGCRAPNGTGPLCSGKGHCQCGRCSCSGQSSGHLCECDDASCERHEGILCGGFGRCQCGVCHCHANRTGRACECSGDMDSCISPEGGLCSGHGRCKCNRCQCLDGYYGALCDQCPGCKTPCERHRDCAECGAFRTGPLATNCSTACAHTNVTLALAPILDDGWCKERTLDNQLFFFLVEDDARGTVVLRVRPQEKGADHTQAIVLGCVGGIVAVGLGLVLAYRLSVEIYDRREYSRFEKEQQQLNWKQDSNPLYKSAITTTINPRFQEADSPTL
Test: α4β7 Integrin Cell Capture Assay
Format: cell-based
Settings: capture of α4β7 integrin expressing RPMI8866 cells on recombinant MadCAM-1 extracellular domain-coated plate; 0.5 mM MnCl2
Summary of the method: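 RPMI8866 cells (0.5×10^6 cells/mL in DMEM + 0.5% FBS + 0.5 mM MnCl2) preincubated with compound 1 h at 37 °C, then allowed to adhere 30 min at 37 °C to plates coated with MAdCAM-1 extracellular domain (1.0 μg/mL). Bound cells fixed with 2% glutaraldehyde, Hoechst-stained, imaged and counted; EC50 from cell count versus concentration.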

**Q.** How did the pEC50 turn out when `COc1cc2ccccc2cc1-c1ccc(C[C@H](NC(=O)c2c(F)cccc2F)C(=O)O)c2c1OCCO2` [Example 11, (S)-2-(2,6-difluorobenzamido)-3-(8-(3-methoxynaphthalen-2-yl)-2,3-dihydrobenzo[b][1,4]dioxin-5-yl)propanoic acid] was run?
**A.** Its pEC50 is 7.53.

**Q.** How did the pEC50 turn out when `CC[C@@H](Nc1cc(F)c(C(=O)N[C@@H](Cc2ccc(-c3c(C(F)(F)F)cc(C)n(C)c3=O)c3c2COC3)C(=O)O)c(F)c1)C(F)(F)F` [Example 13, (S)-2-(2,6-difluoro-4-(((R)-1,1,1-trifluorobutan-2-yl)amino)benzamido)-3-(7-(1,6-dimethyl-2-oxo-4-(trifluoromethyl)-1,2-dihydropyridin-3-yl)-1,3-dihydroisobenzofuran-4-yl)propanoic acid] was run?
**A.** Its pEC50 is 9.41.

**Q.** `CC[C@@H](Nc1cc(F)c(C(=O)N[C@@H](Cc2ccc(-c3c(OC)cc(C)n(C)c3=O)c3c2COC3)C(=O)O)c(F)c1)C(F)(F)F` [Example 23, (S)-2-(2,6-difluoro-4-(((R)-1,1,1-trifluorobutan-2-yl)amino)benzamido)-3-(7-(4-methoxy-1,6-dimethyl-2-oxo-1,2-dihydropyridin-3-yl)-1,3-dihydroisobenzofuran-4-yl) propanoic acid] was tested. Which pEC50 did it give?
**A.** Its pEC50 is 9.16.

**Q.** `Cc1cc(N2CCOC[C@@H]2C(F)(F)F)cc(F)c1C(=O)N[C@@H](Cc1ccc(-n2c(=O)c3ccncc3n(C)c2=O)c2c1CCCO2)C(=O)O` [Example 115, (S)-2-(2-fluoro-6-methyl-4-((R)-3-(trifluoromethyl)morpholino)benzamido)-3-(8-(1-methyl-2,4-dioxo-1,4-dihydropyrido[3,4-d]pyrimidin-3(2H)-yl)chroman-5-yl)propanoic acid] was tested. Which pEC50 did it give?
**A.** Its pEC50 is 10.57.

**Q.** How did the pEC50 turn out when `O=C(N[C@@H](Cc1ccc(-c2c(Cl)cc(F)cc2Cl)c2c1COC2)C(=O)O)c1c(Cl)cccc1Cl` [Example 17, (S)-3-(7-(2,6-dichloro-4-fluorophenyl)-1,3-dihydroisobenzofuran-4-yl)-2-(2,6-dichlorobenzamido)propanoic acid] was run?
**A.** Its pEC50 is 6.90.

**Q.** With `Cc1cc(N2CCOC[C@@H]2C(F)(F)F)cc(F)c1C(=O)N[C@@H](Cc1ccc(-c2c(C)nc(C)n(C)c2=O)c2c1CCC2)C(=O)O` [Example 194] as the compound, how does the pEC50 read?
**A.** Its pEC50 is 10.00.

**Q.** `Cc1nc(-c2ccc(C[C@H](NC(=O)c3c(F)cc(N4CCOC[C@@H]4C(F)(F)F)cc3Cl)C(=O)O)c3c2OCCC3)c(=O)n(C)c1C` [Example 150] was tested. Which pEC50 did it give?
**A.** Its pEC50 is 9.85.

**Q.** How did the pEC50 turn out when `Cc1cnc(-c2ccc(C[C@H](NC(=O)c3c(F)cc(N4CCOC[C@@H]4C(F)(F)F)cc3F)C(=O)O)c3c2COC3)nc1C` [Example 28, (S)-2-(2,6-difluoro-4-((R)-3-(trifluoromethyl)morpholino)benzamido)-3-(7-(4,5-dimethylpyrimidin-2-yl)-1,3-dihydroisobenzofuran-4-yl)propanoic acid] was run?
**A.** The pEC50 was 7.02.

**Q.** How did the pEC50 turn out when `C[C@@H](Nc1cc(F)c(C(=O)N[C@@H](Cc2ccc(-c3c(Cl)cc(C#N)cc3Cl)c3c2CCCO3)C(=O)O)c(F)c1)C(F)(F)F` [Example 91, (S)-3-(8-(2,6-dichloro-4-cyanophenyl)chroman-5-yl)-2-(2,6-difluoro-4-(((R)-1,1,1-trifluoropropan-2-yl)amino)benzamido)propanoic acid] was run?
**A.** The pEC50 was 7.96.

**Q.** `Cc1nc(-c2ccc(C[C@H](NC(=O)c3c(F)cc(N4CCOC[C@@H]4C(F)(F)F)cc3F)C(=O)O)c3c2CC(O)C3)c(=O)n(C)c1C` (some centres unmarked) [Example 197] was tested. Which pEC50 did it give?
**A.** The pEC50 was 9.51.

**Q.** `Cc1cc(N2CCOC[C@@H]2C(F)(F)F)cc(F)c1C(=O)N[C@@H](Cc1ccc(-c2c(C(F)(F)F)cc(C)n(C)c2=O)c2c1CCC2)C(=O)O` [Example 200] was tested. Which pEC50 did it give?
**A.** The pEC50 was 10.08.

**Q.** `CC[C@@H](Nc1cc(F)c(C(=O)N[C@@H](Cc2ccc(-c3c(C(F)(F)F)cc(C)n(C)c3=O)c3c2CCCO3)C(=O)O)c(F)c1)C(F)(F)F` (single isomer, unassigned) [Example 45] was tested. Which pEC50 did it give?
**A.** The pEC50 was 9.02.

**Q.** How did the pEC50 turn out when `CC[C@@H](Nc1cc(F)c(C(=O)N[C@@H](Cc2ccc(-c3cc4ccccc4n(C)c3=O)c3c2CCCO3)C(=O)O)c(F)c1)C(F)(F)F` [Example 31, (S)-2-(2,6-difluoro-4-(((R)-1,1,1-trifluorobutan-2-yl)amino)benzamido)-3-(8-(1-methyl-2-oxo-1,2-dihydroquinolin-3-yl)chroman-5-yl)propanoic acid] was run?
**A.** The pEC50 was 8.05.

**Q.** With `O=C(N[C@@H](Cc1ccc(-c2c(Cl)cc(F)cc2Cl)c2c1OCCC2)C(=O)O)c1c(F)cccc1F` [Example 98, (S)-3-(5-(2,6-dichloro-4-fluorophenyl)chroman-8-yl)-2-(2,6-difluorobenzamido)propanoic acid] as the compound, how does the pEC50 read?
**A.** Its pEC50 is 7.01.

**Q.** With `CC[C@@H](Nc1cc(F)c(C(=O)N[C@@H](Cc2ccc(-c3c(C(F)(F)F)cc(C)n(C)c3=O)c3c2CN(C)CC3)C(=O)O)c(F)c1)C(F)(F)F` [Example 204] as the compound, how does the pEC50 read?
**A.** Its pEC50 is 8.87.

**Q.** How did the pEC50 turn out when `CCOCc1cc(OC)c(-c2ccc(C[C@H](NC(=O)c3c(F)cccc3F)C(=O)O)c3c2OCCC3)c(OC)c1` [Example 71, (S)-2-(2,6-difluorobenzamido)-3-(8-(4-(ethoxymethyl)-2,6-dimethoxyphenyl)chroman-5-yl)propanoic acid] was run?
**A.** The pEC50 was 8.04.

**Q.** With `CC[C@@H](Nc1cc(F)c(C(=O)N[C@@H](Cc2ccc(-c3ncc(C)c(C)n3)c3c2COC3)C(=O)O)c(F)c1)C(F)(F)F` [Example 24, (S)-2-(2,6-difluoro-4-(((R)-1,1,1-trifluorobutan-2-yl)amino)benzamido)-3-(7-(4,5-dimethylpyrimidin-2-yl)-1,3-dihydroisobenzofuran-4-yl)propanoic acid] as the compound, how does the pEC50 read?
**A.** The pEC50 was 7.00.

**Q.** With `Cc1c(-c2ccc(C[C@H](NC(=O)c3c(F)cccc3F)C(=O)O)c3c2OCCC3)c(=O)n(C)c2ccccc12` [Example 57, (S)-2-(2,6-difluorobenzamido)-3-(8-(1,4-dimethyl-2-oxo-1,2-dihydroquinolin-3-yl)chroman-5-yl)propanoic acid] as the compound, how does the pEC50 read?
**A.** The pEC50 was 8.38.

**Q.** `O=C(N[C@@H](Cc1ccc(-c2c(Cl)cc(F)cc2Cl)c2c1OCCO2)C(=O)O)c1c(Cl)cccc1Cl` [Example 5, (S)-3-(8-(2,6-dichloro-4-fluorophenyl)-2,3-dihydrobenzo[b][1,4]dioxin-5-yl)-2-(2,6-dichlorobenzamido)propanoic acid] was tested. Which pEC50 did it give?
**A.** Its pEC50 is 7.26.

**Q.** With `O=C(N[C@@H](Cc1ccc(-c2c(Cl)cc(F)cc2Cl)c2c1OCCN2)C(=O)O)c1c(F)cccc1F` [Example 51, (S)-3-(5-(2,6-dichloro-4-fluorophenyl)-3,4-dihydro-2H-benzo[b][1,4]oxazin-8-yl)-2-(2,6-difluorobenzamido)propanoic acid] as the compound, how does the pEC50 read?
**A.** Its pEC50 is 7.47.

**Q.** How did the pEC50 turn out when `C=C1COCCN(c2cc(F)c(C(=O)N[C@@H](Cc3ccc(-c4nc(C)c(C)n(C)c4=O)c4c3CCCO4)C(=O)O)c(F)c2)C1` [Example 158] was run?
**A.** Its pEC50 is 9.30.

**Q.** With `Cc1cc(N2CCOC[C@@H]2C(F)(F)F)cc(F)c1C(=O)N[C@@H](Cc1ccc(-c2cc(Cl)c(C)n(C)c2=O)c2c1CCCO2)C(=O)O` [Example 142] as the compound, how does the pEC50 read?
**A.** Its pEC50 is 9.60.

**Q.** How did the pEC50 turn out when `O=C(N[C@@H](Cc1ccc(-c2c(Cl)cc(F)cc2Cl)c2c1COC2)C(=O)O)c1c(F)cccc1F` [Example 16, (S)-3-(7-(2,6-dichloro-4-fluorophenyl)-1,3-dihydroisobenzofuran-4-yl)-2-(2,6-difluorobenzamido)propanoic acid] was run?
**A.** Its pEC50 is 7.51.
